From patent US10822535B2, “Modified acid compositions as alternatives to conventional acids in the oil and gas industry” (Fluid Energy Group Ltd., priority 2017, dated 2020)
Converted amounts (≈) assume the structure as drawn. Where two headings read alike, the source gives them in different places.

Columns and labels:
Corophium volutator = assay: Sediment bioassay using an amphipod (OSPARCOM 2006 Part A); type: in vivo; conditions: sediment phase, via dried sediment, nominal concentrations
Procedure: OSPARCOM Guidelines (2006) Part A. A Sediment Bioassay Using an Amphipod Corophium sp
This study was commissioned to determine the sediment phase toxicity of the composition of monoethanolamine to the intertidal amphipod Corophium volutator. […] The result is based on nominal concentrations and was calculated by Linear Interpolation within the CETIS suite of statistical analysis.

[1] = Acute lethal toxicity to marine copepods (ISO 14669); conditions: Acartia tonsa (marine copepod), in vivo, other: aquatic phase (waterborne exposure), Water Accommodated Fraction, nominal concentrations
Procedure: A series of test were carried out to assess the environmental impact of monoethanoamine. A stock solution of 98-99% pure monoethanolamine was sent to be tested. The solution was diluted where necessary.
Determination of Acute Lethal Toxicity to Marine Copepods (Copepoda; Crustacea) (ISO 14669 (1999) Water Quality)
This study was commissioned to determine the aquatic phase toxicity of monoethanolamine to the marine copepod Acartia tonsa. The A. tonsa toxicity LC50 test was conducted in accordance with the study plan except for the following deviation and interferences but met all other relevant validity criteria. In the definitive test the temperature of the dilution water was below acceptable limits by a maximum of 0.7° C., the pH was below acceptable limits by a maximum of 0.01 units. These deviations were not expected to have an impact on the test as there was no control mortalities.

Skeletonema sp. = assay: Marine algal growth inhibition test (ISO 10253); type: cell-based; conditions: 72 h, WAFs, nominal concentrations, read-out: 72 h EC(r)50
Source text: ISO 10253 (2016) Water Quality—Marine Algal Growth Inhibition Test with Skeletonema Sp. This study was commissioned to determine the aquatic phase toxicity of the composition of monoethanolamine to the marine unicellular algae Skeletonema sp. […] It is the results from this test that has been reported.

Cyprinodon variegatus = assay: Marine fish 96 h limit test (OSPAR); type: in vivo; conditions: 96 h exposure at 199.7 mg/l (Water Accommodated Fraction)
Procedure: This study was commissioned to determine the aquatic (96 h limit test) toxicity of the composition of monoethanolamine to the marine fish Cyprinodon variegatus.
There were no interferences in this test. Test conditions of exposure were within formal and informal limits of acceptability except for the exception noted below. There were ten fish used in both the test and control tanks, with no control mortality observed.
The test concentration was derived from the test material EC/LC50 value between the most sensitive acute toxicity test species Skeletonema sp. and A. tonsa.

[2] = Aerobic degradability in seawater (OECD 306)
Procedure: This study was commissioned to determine the aerobic degradability of the composition of monoethanolamine in seawater. […] The ThODNO3 value was determined from the chemical formula of the compound tested.
The OECD 306 guideline states the test material can be considered to be inhibitory to bacteria (at the concentration used) if the BOD of the mixture of reference and test materials is less than the sum of the BOD of the separate solutions of the two substances.

Compound	10 day LC50 (Corophium volutator)	LC50 at 48 h ([1]; 48 h LC50, definitive test, seawater) [µg/mL]	LC50 at 48 h ([1]; 48 h LC50, range-finding test) [µg/mL]	EC50 (Skeletonema sp.; definitive test) [µg/mL]	EC50 (Skeletonema sp.; range-finding test) [µg/mL]	mortality (Cyprinodon variegatus)	biodegradation [2] [%]	percentage inhibition of bacteria ([2]; in 28 days) [%]	degradation of reference material ([2]; first 14 days, seawater)
NCCO [monoethanolamine]	6,660 mg/kg	434 (≈ 7.1 mM)	550 (≈ 9 mM)	200 (≈ 3.27 mM)	509 (≈ 8.33 mM)	no mortalities	71	12	
O=C([O-])c1ccccc1.[Na+] [sodium benzoate, reference compound]									more than 60%
